The supplement of paper PMC10307832

Columns and labels:
Assay in all cases: relative viability (nuclei count vs DMSO), 5 days (fraction); higher = more cells survive
201T = test system: 201T
Outline: (§1)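 Lung cancer cell lines in 1536-well plates got either a single drug or a fixed anchor-drug dose together with five library-drug doses (not always all listed) in √10 steps, by pin tool, on the day after seeding. Nuclei were counted after 5 days, and relative viability is the treated-to-vehicle ratio of nuclei counts. Values are medians of duplicate plates.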

ABC-1 = test system: ABC-1
Outline: as §1

BEN = test system: BEN
Outline: as §1

CAL-12T = test system: CAL-12T
Outline: as §1

COR-L 105 = test system: COR-L 105
Outline: as §1

COR-L23 = test system: COR-L23
Outline: as §1

EKVX = test system: EKVX
Outline: as §1

HARA = test system: HARA
Outline: as §1

HCC-366 = test system: HCC-366
Outline: as §1

LK-2 = test system: LK-2
Outline: as §1

LU99A = test system: LU99A
Outline: as §1

NCI-H1437 = test system: NCI-H1437
Outline: as §1

NCI-H1650 = test system: NCI-H1650
Outline: as §1

NCI-H1666 = test system: NCI-H1666
Outline: as §1

NCI-H2009 = test system: NCI-H2009
Outline: as §1

NCI-H2170 = test system: NCI-H2170
Outline: as §1

NCI-H3122 = test system: NCI-H3122
Outline: as §1

NCI-H441 = test system: NCI-H441
Outline: as §1

NCI-H661 = test system: NCI-H661
Outline: as §1

NCI-H727 = test system: NCI-H727
Outline: as §1

NCI-H838 = test system: NCI-H838
Outline: as §1

PC-14 = test system: PC-14
Outline: as §1

SW 900 = test system: SW 900
Outline: as §1

SMILES: O=C(O)c1ccc(-c2c[nH]c3ncc(-c4ccccc4)cc23)cc1C1CCCC1 + Cc1nc(Nc2ncc(C(=O)Nc3c(C)cccc3Cl)s2)cc(N2CCN(CCO)CC2)n1 [Dasatinib] (partner 0.075 µM)
- relative viability (201T; first compound 0.04 µM): 0.58
- relative viability (201T; first compound 0.1265 µM): 0.599
- relative viability (201T; first compound 0.4 µM): 0.523
- relative viability (201T; first compound 1.265 µM): 0.534
- relative viability (ABC-1; first compound 0.04 µM): 0.588
- relative viability (ABC-1; first compound 0.1265 µM): 0.629
- relative viability (ABC-1; first compound 0.4 µM): 0.551
- relative viability (ABC-1; first compound 1.265 µM): 0.604
- relative viability (BEN; first compound 0.04 µM): 0.291
- relative viability (BEN; first compound 0.1265 µM): 0.374
- relative viability (BEN; first compound 0.4 µM): 0.358
- relative viability (BEN; first compound 1.265 µM): 0.291
- relative viability (CAL-12T; first compound 0.04 µM): 0.484
- relative viability (CAL-12T; first compound 0.1265 µM): 0.602
- relative viability (CAL-12T; first compound 0.4 µM): 0.481
- relative viability (CAL-12T; first compound 1.265 µM): 0.323
- relative viability (COR-L 105; first compound 0.04 µM): 0.318
- relative viability (COR-L 105; first compound 0.1265 µM): 0.376
- relative viability (COR-L 105; first compound 0.4 µM): 0.383
- relative viability (COR-L 105; first compound 1.265 µM): 0.391
- relative viability (COR-L23; first compound 0.04 µM): 0.485
- relative viability (COR-L23; first compound 0.1265 µM): 0.578
- relative viability (COR-L23; first compound 0.4 µM): 0.469
- relative viability (COR-L23; first compound 1.265 µM): 0.3
- relative viability (EKVX; first compound 0.04 µM): 0.547
- relative viability (EKVX; first compound 0.1265 µM): 0.512
- relative viability (EKVX; first compound 0.4 µM): 0.564
- relative viability (EKVX; first compound 1.265 µM): 0.675
- relative viability (HARA; first compound 0.04 µM): 0.237
- relative viability (HARA; first compound 0.1265 µM): 0.294
- relative viability (HARA; first compound 0.4 µM): 0.308
- relative viability (HARA; first compound 1.265 µM): 0.3
- relative viability (HCC-366; first compound 0.04 µM): 0.583
- relative viability (HCC-366; first compound 0.1265 µM): 0.786
- relative viability (HCC-366; first compound 0.4 µM): 0.689
- relative viability (HCC-366; first compound 1.265 µM): 0.669
- relative viability (LK-2; first compound 0.04 µM): 0.362
- relative viability (LK-2; first compound 0.1265 µM): 0.282
- relative viability (LK-2; first compound 0.4 µM): 0.252
- relative viability (LK-2; first compound 1.265 µM): 0.274
- relative viability (LU99A; first compound 0.04 µM): 0.599
- relative viability (LU99A; first compound 0.1265 µM): 0.748
- relative viability (LU99A; first compound 0.4 µM): 0.626
- relative viability (LU99A; first compound 1.265 µM): 0.448
- relative viability (NCI-H1437; first compound 0.04 µM): 0.385
- relative viability (NCI-H1437; first compound 0.1265 µM): 0.386
- relative viability (NCI-H1437; first compound 0.4 µM): 0.374
- relative viability (NCI-H1437; first compound 1.265 µM): 0.378
- relative viability (NCI-H1650; first compound 0.04 µM): 0.312
- relative viability (NCI-H1650; first compound 0.1265 µM): 0.357
- relative viability (NCI-H1650; first compound 0.4 µM): 0.37
- relative viability (NCI-H1650; first compound 1.265 µM): 0.308
- relative viability (NCI-H1666; first compound 0.04 µM): 0.858
- relative viability (NCI-H1666; first compound 0.1265 µM): 0.928
- relative viability (NCI-H1666; first compound 0.4 µM): 0.832
- relative viability (NCI-H1666; first compound 1.265 µM): 0.501
- relative viability (NCI-H2009; first compound 0.04 µM): 0.322
- relative viability (NCI-H2009; first compound 0.1265 µM): 0.312
- relative viability (NCI-H2009; first compound 0.4 µM): 0.277
- relative viability (NCI-H2009; first compound 1.265 µM): 0.264
- relative viability (NCI-H2170; first compound 0.04 µM): 0.522
- relative viability (NCI-H2170; first compound 0.1265 µM): 0.623
- relative viability (NCI-H2170; first compound 0.4 µM): 0.529
- relative viability (NCI-H2170; first compound 1.265 µM): 0.564
- relative viability (NCI-H3122; first compound 0.04 µM): 0.927
- relative viability (NCI-H3122; first compound 0.1265 µM): 0.858
- relative viability (NCI-H3122; first compound 0.4 µM): 0.766
- relative viability (NCI-H3122; first compound 1.265 µM): 0.812
- relative viability (NCI-H441; first compound 0.04 µM): 0.737
- relative viability (NCI-H441; first compound 0.1265 µM): 0.521
- relative viability (NCI-H441; first compound 0.4 µM): 0.575
- relative viability (NCI-H441; first compound 1.265 µM): 0.473
- relative viability (NCI-H661; first compound 0.04 µM): 0.852
- relative viability (NCI-H661; first compound 0.1265 µM): 1.1
- relative viability (NCI-H661; first compound 0.4 µM): 0.792
- relative viability (NCI-H661; first compound 1.265 µM): 0.797
- relative viability (NCI-H727; first compound 0.04 µM): 0.298
- relative viability (NCI-H727; first compound 0.1265 µM): 0.398
- relative viability (NCI-H727; first compound 0.4 µM): 0.442
- relative viability (NCI-H727; first compound 1.265 µM): 0.364
- relative viability (NCI-H838; first compound 0.04 µM): 0.273
- relative viability (NCI-H838; first compound 0.1265 µM): 0.299
- relative viability (NCI-H838; first compound 0.4 µM): 0.31
- relative viability (NCI-H838; first compound 1.265 µM): 0.293
- relative viability (PC-14; first compound 0.04 µM): 0.245
- relative viability (PC-14; first compound 0.1265 µM): 0.258
- relative viability (PC-14; first compound 0.4 µM): 0.281
- relative viability (PC-14; first compound 1.265 µM): 0.286
- relative viability (SW 900; first compound 0.04 µM): 0.577
- relative viability (SW 900; first compound 0.1265 µM): 0.712
- relative viability (SW 900; first compound 0.4 µM): 0.584
- relative viability (SW 900; first compound 1.265 µM): 0.52
